Assay results taken from patent US12636372B2, “Immolative cell-penetrating complexes for nucleic acid delivery to the lung” (The Board of Trustees of the Leland Stanford Junior …, priority 2019, dated 2026).

Assay: In vitro toxicity assay: MTT proliferation assay
Type: cell-based
Conditions: 3 day incubation
Description: FIGS. 3A-3F show the in vitro reporter and toxicity assays.

In the case of `NCCCC[C@H](NCCO)C(=O)O` [hydroxyethyl lysine], the Cellular viability is reported as “not affected”.
